Earlier results, collected in patent publication EP0023178A1, “Process for the preparation of concentrated solutions of amygdaline in its natural form” (SOMET, Société dite, priority 1979, dated 1981).

Settings: water

## N#CC(OC1OC(COC2OC(CO)C(O)C(O)C2O)C(O)C(O)C1O)c1ccccc1 (stereo not drawn) [amygdaline, D ou R mandélonitrile β-gentiobioside trihydraté]
  solubilité dans l'eau: 8-8,5%
